The assay concerns soybean rust fungus (Phakopsora pachyrhizi). The experiment in a line: Test Example 7: soybean rust control, foliar spray on soybean. The following applies: 200 ppm sprayed on soybean (KUROSENGOKU); inoculated after 2 days; assessed after 3 + 14 days. Format: in vivo.

Structures are written as SMILES.

For `CON=C(C)c1cccc(OCc2c(C)cccc2-n2nnn(C)c2=O)n1` [compound 44], the “area of lesion on the treated plant relative to that on an untreated plant” value was no more than 30%.

These data come from US9635857B2, “Tetrazolinone compound and use thereof” (SUMITOMO CHEMICAL COMPANY, LIMITED, priority 2013, dated 2017).
